Experimental data from BindingDB's records for doi:10.1021/np000120k (The University of Tokyo, 2000).
Converted amounts (≈) assume the structure as drawn. Starred links: 1 amine or outer side, 2 acyl side, 3 side chain; linkers in the order of their positions; H or OH if unused. Positions of bridges follow the written chain, without caps; N, C: chain ends. Non-standard residues stand in square brackets, D forms with d. Residues, ends and D or L forms follow the SMILES beside them. NMehTyr = CN[C@@H](CCc1ccc(O)cc1)C(=O)O; hTyr = N[C@@H](CCc1ccc(O)cc1)C(=O)O; CO = O=C([*:1])[*:2]

Target: T1, Carboxypeptidase A1 (Homo sapiens, UniProt P15085)
T1 sequence (P15085 whole entry): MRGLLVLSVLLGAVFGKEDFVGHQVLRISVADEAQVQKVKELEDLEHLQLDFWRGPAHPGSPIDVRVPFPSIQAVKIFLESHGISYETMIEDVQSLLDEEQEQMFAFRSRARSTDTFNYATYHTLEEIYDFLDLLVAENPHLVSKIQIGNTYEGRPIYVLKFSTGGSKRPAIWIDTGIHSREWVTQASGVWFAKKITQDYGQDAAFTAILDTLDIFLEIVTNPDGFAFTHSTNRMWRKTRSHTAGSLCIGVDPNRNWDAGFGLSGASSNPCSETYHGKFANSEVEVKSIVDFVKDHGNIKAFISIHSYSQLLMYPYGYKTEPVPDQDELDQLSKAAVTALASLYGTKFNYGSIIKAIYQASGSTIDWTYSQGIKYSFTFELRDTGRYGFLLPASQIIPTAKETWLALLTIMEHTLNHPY
Test: Inhibition of carboxypeptidase A

**Q.** For CC[C@H](C)[C@@H]1NC(=O)[C@H](NC(=O)N[C@@H](Cc2ccc(O)cc2)C(=O)O)CCCCNC(=O)[C@H]([C@@H](C)CC)NC(=O)[C@H](CCc2ccc(O)cc2)N(C)C(=O)[C@H](CCc2ccc(O)cc2)NC1=O [Anabaenopeptin G] ({Tyr-CO}-[dK]I[hTyr][NMehTyr]I; lactam 1-C), which IC50 is on record?
**A.** Its IC50 is 7 ng/mL (≈ 7.53 nM).
